Experimental data reported in patent US10308689B2, “Dengue virus (DV) polypeptide sequences, T cell epitopes and methods and uses thereof” (LA JOLLA INSTITUTE FOR ALLERGY AND IMMUNOLOGY, priority 2010, dated 2019).

Test system: PBMC of healthy adult blood donors from Colombo, Sri Lanka
Assay: Ex vivo IFNγ ELISPOT, HLA-matched PBMC of Sri Lankan blood donors
Type: cell-based, human
Parameters: Total Response per epitope: unit not given here
Details: for # donors responded: number of donors responding to the epitope; for T cell response [SFC]: ex vivo IFNγ SFC/10^6 PBMC; for # of responders: responding donors, HLA allele(s)
[1] = IFNγ ELISPOT response summed over responding donors, per epitope
[2] = HLA-matched PBMC, proteome-wide screen

Row | SMILES | Total Response per epitope [1] | # donors responded [2] | T cell response [SFC] (per epitope) | # of responders | # donors responded (HLA allele, supertype and serotype) | Total Response per epitope (summed IFNγ ELISPOT response per epitope, HLA allele and serotype as given)
1 | CC(C)C[C@H](N)C(=O)N1CCC[C@H]1C(=O)N[C@@H](CCC(=O)O)C(=O)N[C@@H](CCC(=O)O)C(=O)N[C@@H](CCC(N)=O)C(=O)N[C@@H](CC(=O)O)C(=O)N[C@@H](CCC(N)=O)C(=O)N[C@@H](CC(N)=O)C(=O)N[C@@H](Cc1ccc(O)cc1)C(=O)O | 1166.7 | 5 | – | – | – | –
2 | CC(C)C[C@H](NC(=O)[C@H](CC(C)C)NC(=O)[C@H](CC(C)C)NC(=O)[C@@H](NC(=O)[C@H](CCC(=O)O)NC(=O)[C@H](CC(C)C)NC(=O)[C@@H](NC(=O)[C@H](CCC(=O)O)NC(=O)[C@@H]1CCCN1C(=O)[C@@H](N)CC(C)C)[C@@H](C)O)[C@@H](C)O)C(=O)O | 296.7 | 4 | – | – | – | –
3 | CSCC[C@H](NC(=O)[C@H](Cc1ccccc1)NC(=O)[C@@H](NC(=O)[C@@H]1CCCN1C(=O)[C@@H](N)CC(C)C)[C@@H](C)O)C(=O)N[C@H](C(=O)N[C@@H](CCC(N)=O)C(=O)N[C@@H](CCCCN)C(=O)N[C@@H](C)C(=O)N[C@@H](CCCNC(=N)N)C(=O)O)[C@@H](C)O | 1263.3 | 8 | – | – | – | –
4 | CC[C@H](C)[C@H](NC(=O)[C@H](Cc1ccccc1)NC(=O)[C@H](C)NC(=O)[C@@H](N)CCSC)C(=O)N[C@@H](C)C(=O)N[C@@H](Cc1ccccc1)C(=O)N[C@@H](CC(C)C)C(=O)N[C@@H](CCCNC(=N)N)C(=O)N[C@@H](Cc1ccccc1)C(=O)O | 146.7 | 2 | – | – | – | –
5 | CC[C@H](C)[C@H](NC(=O)[C@H](CC(N)=O)NC(=O)[C@H](C)NC(=O)[C@@H](N)CCSC)C(=O)N[C@@H](Cc1ccccc1)C(=O)N[C@@H](CCCNC(=N)N)C(=O)NCC(=O)N[C@@H](CO)C(=O)N[C@@H](Cc1ccc(O)cc1)C(=O)O | 821.7 | 5 | – | – | – | –
6 | CC[C@H](C)[C@H](NC(=O)[C@H](CC(C)C)NC(=O)[C@H](C)NC(=O)[C@H](CC(C)C)NC(=O)[C@H](CC(C)C)NC(=O)[C@@H](N)CCSC)C(=O)N[C@@H](C)C(=O)N[C@H](C(=O)N[C@@H](CC(C)C)C(=O)O)C(C)C | 81.7 | 1 | – | – | – | –
7 | CC[C@H](C)[C@H](NC(=O)[C@H](CC(C)C)NC(=O)[C@H](CC(C)C)NC(=O)[C@@H](N)CCSC)C(=O)N[C@@H](CC(C)C)C(=O)N[C@@H](CS)C(=O)N[C@H](C(=O)N[C@H](C(=O)N[C@@H](CCC(N)=O)C(=O)N[C@H](C(=O)O)C(C)C)[C@@H](C)O)C(C)C | 43.3 | 1 | – | – | – | –
8 | CSCC[C@H](NC(=O)[C@H](CO)NC(=O)[C@@H]1CCCN1C(=O)[C@@H](N)CCSC)C(=O)N[C@@H](CCCCN)C(=O)N[C@@H](CCCNC(=N)N)C(=O)N[C@@H](Cc1ccccc1)C(=O)N[C@@H](CCCNC(=N)N)C(=O)N[C@@H](CCCNC(=N)N)C(=O)N[C@@H](CCC(=O)O)C(=O)O | 1336.7 | 5 | – | – | – | –
9 | CC[C@H](C)[C@H](NC(=O)[C@@H](NC(=O)[C@H](CO)NC(=O)[C@@H]1CCCN1C(=O)[C@@H](N)CCSC)C(C)C)C(=O)N[C@@H](CCC(=O)O)C(=O)N[C@@H](CCCCN)C(=O)N[C@@H](CCSC)C(=O)N[C@@H](CCC(=O)O)C(=O)N[C@H](C(=O)O)[C@@H](C)O | 783.3 | 2 | – | – | – | –
10 | CSCC[C@H](N)C(=O)N1CCC[C@H]1C(=O)N[C@H](C(=O)N[C@H](C(=O)N[C@@H](Cc1c[nH]cn1)C(=O)N[C@@H](CO)C(=O)N[C@@H](CO)C(=O)N[C@@H](C)C(=O)N[C@@H](C)C(=O)N[C@@H](CCC(N)=O)C(=O)O)[C@@H](C)O)C(C)C | 183.3 | 2 | – | – | – | –
11 | CSCC[C@H](NC(=O)[C@@H](NC(=O)[C@H](CCCNC(=N)N)NC(=O)CNC(=O)[C@H](CC(C)C)NC(=O)[C@H](CC(=O)O)NC(=O)[C@H](CCCNC(=N)N)NC(=O)[C@H](Cc1ccccc1)NC(=O)[C@H](CO)NC(=O)[C@@H](N)CCSC)C(C)C)C(=O)O | 3250.0 | 8 | 3250 SFC | 8 | – | –
12 | CSCC[C@H](NC(=O)[C@H](CO)NC(=O)[C@H](Cc1ccc(O)cc1)NC(=O)[C@H](CO)NC(=O)[C@@H](N)CCSC)C(=O)N[C@@H](CS)C(=O)N[C@H](C(=O)NCC(=O)N[C@@H](CCCCN)C(=O)N[C@@H](Cc1ccccc1)C(=O)O)[C@@H](C)O | 2553.3 | 6 | 2553 SFC | 6 | – | –
13 | CSCC[C@H](NC(=O)[C@@H](NC(=O)[C@H](Cc1ccc(O)cc1)NC(=O)[C@H](CO)NC(=O)[C@@H](N)CCSC)[C@@H](C)O)C(=O)N[C@@H](CS)C(=O)N[C@@H](CO)C(=O)NCC(=O)N[C@@H](CCCCN)C(=O)O | 23.3 | 1 | – | – | – | –
14 | CC[C@H](C)[C@H](NC(=O)[C@H](Cc1ccc(O)cc1)NC(=O)CNC(=O)[C@H](CCCNC(=N)N)NC(=O)[C@H](C)NC(=O)[C@H](C)NC(=O)[C@@H](NC(=O)[C@H](CO)NC(=O)[C@H](C)NC(=O)[C@@H]1CCCN1)[C@@H](C)CC)C(=O)O | 611.7 | 2 | – | – | – | –
15 | C[C@H](NC(=O)[C@H](Cc1c[nH]c2ccccc12)NC(=O)[C@@H](NC(=O)[C@H](CCCNC(=N)N)NC(=O)[C@H](Cc1ccc(O)cc1)NC(=O)[C@@H]1CCCN1C(=O)[C@H](CC(N)=O)NC(=O)[C@H](CCC(=O)O)NC(=O)[C@@H](N)CCC(N)=O)[C@@H](C)O)C(=O)N[C@@H](Cc1ccc(O)cc1)C(=O)O | 265.0 | 1 | – | – | – | –
16 | CC(C)[C@H](NC(=O)CNC(=O)[C@H](CO)NC(=O)[C@@H](N)CCC(N)=O)C(=O)N[C@@H](CC(=O)O)C(=O)N[C@H](C(=O)N[C@@H](Cc1ccccc1)C(=O)N[C@@H](Cc1ccccc1)C(=O)N[C@H](C(=O)N1CCC[C@H]1C(=O)O)[C@@H](C)O)C(C)C | 103.3 | 1 | – | – | – | –
17 | CC(C)C[C@H](NC(=O)[C@H](CO)NC(=O)CNC(=O)[C@H](CS)NC(=O)[C@H](Cc1c[nH]c2ccccc12)NC(=O)[C@H](CCC(N)=O)NC(=O)[C@H](CC(=O)O)NC(=O)[C@H](CCC(=O)O)NC(=O)[C@@H](N)CCCNC(=N)N)C(=O)O | 48.3 | 1 | – | – | – | –
18 | CSCC[C@H](NC(=O)[C@H](Cc1ccc(O)cc1)NC(=O)[C@@H](N)CCCNC(=N)N)C(=O)NCC(=O)N[C@@H](CCC(=O)O)C(=O)N[C@@H](CC(=O)O)C(=O)NCC(=O)N[C@@H](CS)C(=O)N[C@@H](Cc1c[nH]c2ccccc12)C(=O)N[C@@H](Cc1ccc(O)cc1)C(=O)O | 66.7 | 1 | – | – | – | –
19 | CC[C@H](C)[C@H](NC(=O)[C@H](CCC(=O)O)NC(=O)[C@H](Cc1ccccc1)NC(=O)[C@@H]1CCCN1C(=O)[C@@H](NC(=O)[C@H](CCCCN)NC(=O)[C@H](CS)NC(=O)[C@@H]1CCCN1C(=O)[C@@H](N)CO)[C@@H](C)CC)C(=O)N[C@@H](CCSC)C(=O)O | 1156.0 | 5 | – | – | – | –
20 | CC[C@H](C)[C@H](NC(=O)[C@@H](NC(=O)[C@@H](NC(=O)[C@H](CC(N)=O)NC(=O)[C@H](Cc1c[nH]c2ccccc12)NC(=O)[C@H](Cc1ccccc1)NC(=O)[C@H](CCCCN)NC(=O)CNC(=O)[C@@H]1CCCN1C(=O)[C@@H](N)CO)[C@@H](C)O)[C@@H](C)O)C(=O)O | 826.7 | 3 | – | – | – | –
21 | CC[C@H](C)[C@H](NC(=O)[C@@H](NC(=O)[C@@H]1CCCN1C(=O)[C@@H](N)CO)[C@@H](C)CC)C(=O)N[C@@H](CC(N)=O)C(=O)N[C@@H](CCCNC(=N)N)C(=O)N[C@@H](CCC(=O)O)C(=O)NCC(=O)N[C@@H](CCCCN)C(=O)N[C@H](C(=O)O)C(C)C | 106.7 | 1 | – | – | – | –
22 | CC[C@H](C)[C@H](NC(=O)[C@H](CO)NC(=O)[C@H](CC(C)C)NC(=O)[C@@H](NC(=O)[C@@H]1CCCN1C(=O)[C@@H](N)CO)[C@@H](C)CC)C(=O)N[C@H](C(=O)N[C@H](C(=O)N[C@@H](CO)C(=O)N[C@@H](CCC(=O)O)C(=O)O)[C@@H](C)CC)[C@@H](C)O | 1068.3 | 6 | – | – | – | –
23 | C[C@H](NC(=O)[C@H](CCCNC(=N)N)NC(=O)CNC(=O)CNC(=O)[C@H](C)NC(=O)[C@H](CCC(=O)O)NC(=O)[C@H](C)NC(=O)[C@@H](N)[C@@H](C)O)C(=O)N[C@@H](Cc1ccc(O)cc1)C(=O)O | 371.7 | 4 | – | – | – | –
24 | CC(C)C[C@H](NC(=O)[C@H](CC(C)C)NC(=O)[C@@H](NC(=O)[C@H](C)NC(=O)[C@H](C)NC(=O)[C@@H](NC(=O)[C@H](CC(C)C)NC(=O)[C@@H](N)[C@@H](C)O)[C@@H](C)O)C(C)C)C(=O)N[C@@H](CC(C)C)C(=O)N[C@H](C(=O)O)C(C)C | 66.7 | 1 | – | – | – | –
25 | CC(C)[C@H](NC(=O)[C@H](CCCNC(=N)N)NC(=O)[C@H](CCC(N)=O)NC(=O)[C@H](CCC(N)=O)NC(=O)CNC(=O)[C@H](Cc1ccccc1)NC(=O)[C@@H]1CCCN1C(=O)[C@@H](N)[C@@H](C)O)C(=O)N[C@@H](Cc1ccccc1)C(=O)O | – | – | – | – | 3 | 438.3
26 | CSCC[C@H](NC(=O)[C@H](Cc1ccc(O)cc1)NC(=O)[C@@H]1CCCN1C(=O)[C@H](CC(N)=O)NC(=O)[C@H](CC(C)C)NC(=O)[C@@H](N)C(C)C)C(=O)N1CCC[C@H]1C(=O)N[C@@H](CO)C(=O)N[C@H](C(=O)O)C(C)C | 41.7 | 1 | – | – | – | –
27 | CSCC[C@H](NC(=O)[C@H](CC(C)C)NC(=O)[C@H](CO)NC(=O)[C@H](Cc1c[nH]c2ccccc12)NC(=O)[C@H](CCSC)NC(=O)[C@H](CCC(N)=O)NC(=O)[C@H](C)NC(=O)[C@@H](N)Cc1ccc(O)cc1)C(=O)N[C@@H](Cc1ccc(O)cc1)C(=O)O | 38.3 | 1 | – | – | – | –
28 | CSCC[C@H](NC(=O)[C@H](CCC(N)=O)NC(=O)[C@H](C)NC(=O)[C@@H](N)Cc1ccc(O)cc1)C(=O)N[C@@H](Cc1c[nH]c2ccccc12)C(=O)N[C@@H](CO)C(=O)N[C@@H](CC(C)C)C(=O)N[C@@H](CCSC)C(=O)N[C@@H](Cc1ccc(O)cc1)C(=O)N[C@@H](Cc1ccccc1)C(=O)O | 33.3 | 1 | – | – | – | –
